Assay results: patent US20250144081A1, “METHODS FOR REDUCING ALCOHOL, DRUG, AND FOOD INTAKE” (The Scripps Research Institute, priority 2022, published 2025)
Entries after “also recorded” stand apart in the source; their conditions may differ. Values belong to the compound of their own block, whether it stands above or below them.

Tests used:
C57BL/6J mice [1] = test: saccharin consumption in the DID paradigm; type: in vivo, mouse; conditions: CYM-5442 5 mg/kg i.p., male C57BL/6J mice, first 2 h and 4 h
Excerpt: An identical experimental plan was adopted to evaluate acute effects of CYM-5442 on the no-drugs reinforcer saccharin (0.002% w/v). Independent groups of C57BL/6J mice were used for testing the effect of CYM-5442 on saccharin intake.

C57BL/6J mice [2] = test: drinking in the dark (DID) binge drinking paradigm, alcohol intake; type: in vivo, mouse; conditions: for alcohol consumption in the DID paradigm over a 4 h drinking session: first 2 h and 4 h
Description: The S1P agonists fingolimod (1, 2, and 4 mg/kg), ozanimod (0.25, 0.5, and 1 mg/kg) and CYM-5442 (1.25, 2.5, and 5 mg/kg) (Tocris, Minneapolis, MN, USA) were suspended in saline with 1% (w/v) Tween 80 and administered intraperitoneally (i.p.) (injection volume in mice 10 ml/kg, in rats 2 ml/kg). Pretreatment time was 30 min for fingolimod and ozanimod, while CYM-5442 was injected 60 min before each behavioral experiment.
Acute effect of the S1P agonists was tested in alcohol binge-like drinking in male and female C57BL/6J mice exposed to the drinking in the dark paradigm. As described by Rhodes and colleagues (Rhodes et al. Physiol Behav 84:53-63, 2005; Thiele et al. Alcohol 48:235-41, 2014) 3 h after lights go off, the water bottle of single-housed mice was replaced with a bottle containing 20% (v/v) alcohol and left in place for 2 h, over three consecutive days during which mice stabilized alcohol drinking. […] Over the experiment, the amount of alcohol consumed by mice was measured by weighing (0.01 g accuracy) the bottle immediately before and after each drinking session. Alcohol consumption was expressed as grams of pure alcohol per kilogram of body weight (g/kg). In addition, at the end of the second 2 h drinking session, blood samples were collected from the tip of the tail of each mouse and BALs were measured.

C57BL/6J mice [3] = test: chronic treatment of LFD- or HFD-fed mice: body weight, food and water intake; type: in vivo, mouse
Description: (§1) The effect of chronic daily administration of CYM-5442 on body weight and body fat content was tested in mice fed either a low-fat diet (LFD; D12450K, 10 kcal % Fat, Research Diets, Inc. NJ, US) or a high-fat diet (HFD; D07011903, 45 kcal % Fat) ad libitum. Mice were treated with CYM-5442 (2.5 mg/kg, i.p.) or vehicle 5 days a week over 7 consecutive weeks. […] This is consistent with the moderate half-life of the drug that allows adlibitum fed mice to eat through the day. This finding supports that the metabolic effect of CYM-5442 of increased fat utilization or lipolysis is independent of reduction of food intake.

Wistar rats [4] = test: rotarod test, motor coordination, rats; type: in vivo, rat; conditions: CYM-5442 5 mg/kg; male Wistar rats
Description: (§2) Effect of CYM-5442 on motor coordination was evaluated in male and female C57NBL/6J mice and male Wistar rats in the rotarod apparatus (Rotamex-5, Columbus Instruments, USA). Briefly, one week before testing, animals were extensively habituated to handling and intraperitoneal injections. On test day, animals were weighed and allocated into the four experimental groups. CYM-5442 or vehicle were injected intraperitoneally 60 min before the start of the first trial. Each subject underwent 3 trials of 300 s (intertrial interval 60 s) with a rotarod acceleration from 4 to 40 rpm. Trials in which animals fell before 5 s, calculated from the beginning of the trial, were repeated. For each animal, the latency to fall was assessed and expressed as the average values over the 3 trials.

C57BL/6J mice [5] = test: respiratory exchange ratio (RER) by indirect calorimetry (CLAMS); type: in vivo, mouse
Description: The effect of CYM-5442 on energy metabolism was tested by indirect calorimetry with the Comprehensive Lab Animal Monitoring System (CLAMS; Columbus Instruments, Columbus, OH USA). After 1-week acclimatization, on test day, mice were removed from metabolic chambers, injected with CYM-5442 3 h into the dark phase of the light/dark cycle and then placed back into chambers. […] The RER indicates the energy source the organism uses over the day. It is typically measured on a scale from 0.7 to 1.
(§3) Effect of CYM-5442 was evaluated on food (g) and water intake (ml) and respiratory exchange ratio (RER: VCO2/VO2) of male C57BL/6J mice (n=30) allocated into CLAMS (Comprehensive Lab Animal Monitoring System, Columbus Instruments, Columbus, OH USA) chambers. After 1-week acclimatization, on test day, mice were removed from the metabolic chambers, injected with CYM-5442 60 min before 3 h into the dark of the light/dark cycle and then placed back into the chambers. Food, water intake and RER were monitored starting the 1st to the 12th h of the dark phase of the light/dark cycle.

C57BL/6J mice [6] = test: body composition by quantitative nuclear magnetic resonance (qNMR) after chronic treatment; type: in vivo, mouse; conditions: chronic CYM-5442 2.5 mg/kg i.p.
Description: as §1
Body composition was determined with a quantitative nuclear magnetic resonance instrument (qNMR, Echo MRI, Houston, TX).

C57BL/6J mice [7] = test: loss of righting reflex (LORR), sensitivity to alcohol's hypnotic action; type: in vivo, mouse
C57BL/6J mice [8] = test: acute food intake in 4 h sessions (CLAMS); type: in vivo, mouse; conditions: vs 0 mg/kg
Description: The acute effect of CYM-5442 on food intake was measured in 4 h sessions. CYM-5442 was administered 1 h before the sessions. CYM-5442 reduced food intake in a dose-dependent manner at the doses of 2.5 and 5 mg/Kg in the first 2 h (FIG. 7A) and at the dose of 5 mg/kg after 4 h (FIG. 7B).
as §3

Wistar rats [9] = test: intravenous methamphetamine self-administration (FR1 and progressive ratio); type: in vivo, rat; conditions: CYM-5442 5 mg/kg i.p., male Wistar rats, vs vehicle
Description: The effect of CYM-5442 was tested on methamphetamine self-administering rats. Male Wistar rats were aseptically implanted with chronic silastic catheters in the right jugular vein and were trained to self-administer methamphetamine (1 h/day at a dose of 0.05 mg/kg/infusion). Rats were trained to self-administer methamphetamine under a fixed-ratio 1 schedule of reinforcement (FR1) whereby one lever press results in the delivery of one methamphetamine infusion (0.05 mg/kg) under 1-h daily sessions.
Male Wistar rats were aseptically implanted with intravenous catheters in the right jugular vein under deep isoflurane anesthesia as previously described in Ahmed et al. (Proc Natl Acad Sci USA 102:11533-8). At the time of testing, the rats' body weights ranged between 350 and 400 g.
Self-administration was performed in operant conditioning chambers (Med Associates, St. Albans, VT, USA) that were enclosed in lit, sound-attenuating, ventilated environmental cubicles. Methamphetamine was delivered through plastic catheter tubing that was connected to an infusion pump. The infusion pump was activated by responses on the right (active) lever. […] A computer controlled fluid delivery and behavioral data recording. All of the rats were tested for methamphetamine self-administration on a continuous reinforcement (fixed ratio 1, FR1) schedule. […] A 20-s timeout (TO) period followed each METH infusion. […]

[10] = in words only; cited from earlier work
C57BL/6J mice [11] = test: rotarod test, motor coordination, mice; type: in vivo, mouse; conditions: CYM-5442; male C57BL/6J mice
Description: as §2

[12] = test system: mice with degenerative and inflammatory conditions; conditions: cited from earlier work
MeCP2^308/Y mice = test: DID paradigm in low drinking MeCP2^308/Y mice, alcohol intake and BALs; type: in vivo, mouse; conditions: PF-543 10 mg/kg i.p., 30 min before the drinking session
[13] = rotarod test, motor impairment by S1P receptor agonists (fingolimod); conditions: in vivo
body weight (fingolimod) = conditions: in vivo
[14] = CYM-5442 2.5 mg/kg i.p. chronic, HFD-fed or LFD-fed mice, vs vehicle

lean body mass (C57BL/6J mice [6]): without affecting
SMILES: CCOc1ccc(-c2nc(-c3cccc4c3CCC4NCCO)no2)cc1OCC (centres unmarked) [CYM-5442]
saccharin [0.002% (w/v)] consumption in the DID paradigm over a 4 h drinking session (C57BL/6J mice [1]): reduces
alcohol consumption in the DID paradigm over a 4 h drinking session (C57BL/6J mice [2]; CYM-5442 2.5, 5 mg/kg i.p., male C57BL/6J mice): reduces
overall daily (24 h) food intake (C57BL/6J mice [3]; [14]): did not differ
overall daily (24 h) water intake (C57BL/6J mice [3]; [14]): did not differ
body weight gain in HFD-fed mice (C57BL/6J mice [3]; CYM-5442 2.5 mg/kg i.p. daily, 5 days a week over 7 weeks, vs vehicle-treated HFD-fed mice): effectively prevented
motor coordination in the rotarod apparatus (Wistar rats [4]): did not affect
Respiratory Exchange Ratio (RER), time course (C57BL/6J mice [5]; CYM-5442 i.p. 1.25, 2.5, 5 mg/kg, for 1-3 hours, dose-dependent): significantly lower; also recorded: significantly reduced
RER, average of 2 hours, first 2 hrs measure point (1-3 hrs after injection) (C57BL/6J mice [5]; CYM-5442 i.p., 0 mg/kg vs 5 mg/kg): significantly reduced
body fat in the low-fat diet (LFD)-fed control group (reduction) (C57BL/6J mice [6]): not
body fat in the HFD-fed group (C57BL/6J mice [6]; vs vehicle in HFD, 2.5 mg/kg): significantly reduced
duration of loss of righting reflex (LORR) (C57BL/6J mice [7]; CYM-5442 2.5 mg/kg i.p., alcohol 3.5 g/kg, male C57BL/6J mice): significantly increases
food-intake during the 1st 2-hrs (C57BL/6J mice [8]; CYM-5442 2.5 mg/kg and 5 mg/kg): significantly reduced
food-intake over the entire 4-hrs session (C57BL/6J mice [8]; CYM-5442 5 mg/kg): reduced
lever-responding for methamphetamine, fixed-ratio 1 (FR1), 1-h self-administration session (Wistar rats [9]; acute): significantly reduced
methamphetamine self-administration under progressive ratio (PR) schedule, break point (Wistar rats [9]): significantly reduced; also recorded: lower
half-life (circulating) [10]: longer; also recorded: moderate
motor coordination performance in the rotarod apparatus (latency to fall, active run time) (C57BL/6J mice [11]): did not affect; also recorded: does not alter

SMILES: CC(C)Oc1ccc(-c2nc(-c3cccc4c3CC[C@@H]4NCCO)no2)cc1C#N [ozanimod, Ozanimod (RPC1063)]
motor deficits [12]: ameliorated
alcohol consumption at the end of the 4-h drinking session (reducing effect) (C57BL/6J mice [2]; ozanimod 0.25-1 mg/kg i.p., C57BL/6J mice, 4 h, p>0.05): not evident
alcohol consumption in the DID paradigm after 2 h (C57BL/6J mice [2]; ozanimod 0.25-1 mg/kg i.p., C57BL/6J mice, first 2 h, p<0.05): reduced
duration of loss of righting reflex (LORR) (C57BL/6J mice [7]; ozanimod 0.1 and 0.3 mg/kg i.p., C57BL/6J mice): significantly increased
half-life (circulating) [10]: short

SMILES: Cc1cc(CS(=O)(=O)c2ccccc2)cc(OCc2ccc(CN3CCC[C@@H]3CO)cc2)c1 [PF-543]
alcohol consumption of MeCP2^308/Y mice in the DID paradigm (MeCP2^308/Y mice): increased

SMILES: CCCCCCCCc1ccc(CCC(N)(CO)CO)cc1 [fingolimod]
motor impairment, performance in the rotarod test [13]: did not impair
motor deficits [12]: ameliorated
alcohol consumption in the DID paradigm over a 4 h drinking session (C57BL/6J mice [2]; fingolimod 4 mg/kg i.p., C57BL/6J mice): reduced
body weight (body weight (fingolimod)): did not affect
half-life (circulating) [10]: longer
